Experimental data as given in PubChem BioAssay (NCI).
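A five-concentration, 48-hour dose response in 96-well plates underlies each endpoint, interpolated linearly between surrounding concentrations. TGI is the concentration that stops growth completely.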

Tests used:
Assay in all cases: NCI tumour cell line growth inhibition, 48 h
TK-10 renal = test system: TK-10 renal
U251 CNS = test system: U251 CNS
SNB-19 CNS = test system: SNB-19 CNS
ACHN renal = test system: ACHN renal
HOP-92 NSCLC = test system: HOP-92 NSCLC
NCI-H522 lung = test system: NCI-H522 lung
A549 NSCLC = test system: A549 NSCLC
SK-MEL-28 melanoma = test system: SK-MEL-28 melanoma
HL-60(TB) leukemia = test system: HL-60(TB) leukemia
COLO 205 colon = test system: COLO 205 colon
DLD-1 colon = test system: DLD-1 colon
SF-539 CNS = test system: SF-539 CNS
K-562 leukemia = test system: K-562 leukemia
SK-MEL-2 melanoma = test system: SK-MEL-2 melanoma
HT29 colon = test system: HT29 colon
SF-268 CNS = test system: SF-268 CNS
OVCAR-4 ovarian = test system: OVCAR-4 ovarian
M14 melanoma = test system: M14 melanoma
NCI-H226 lung = test system: NCI-H226 lung
UACC-62 melanoma = test system: UACC-62 melanoma
CAKI-1 renal = test system: CAKI-1 renal
RPMI-8226 leukemia = test system: RPMI-8226 leukemia
KM12 colon = test system: KM12 colon
EKVX NSCLC = test system: EKVX NSCLC
HCC-2998 colon = test system: HCC-2998 colon
OVCAR-5 ovarian = test system: OVCAR-5 ovarian
SN12C renal = test system: SN12C renal
HCT-116 colon = test system: HCT-116 colon
M19-MEL melanoma = test system: M19-MEL melanoma
786-0 renal = test system: 786-0 renal
SR leukemia = test system: SR leukemia
KM20L2 colon = test system: KM20L2 colon
DMS 273 small cell lung = test system: DMS 273 small cell lung
SNB-75 CNS = test system: SNB-75 CNS
SNB-78 CNS = test system: SNB-78 CNS
HCT-15 colon = test system: HCT-15 colon
MOLT-4 leukemia = test system: MOLT-4 leukemia
UO-31 renal = test system: UO-31 renal
SF-295 CNS = test system: SF-295 CNS
SK-MEL-5 melanoma = test system: SK-MEL-5 melanoma
NCI-H460 lung = test system: NCI-H460 lung
HOP-62 NSCLC = test system: HOP-62 NSCLC
LXFL 529 NSCLC = test system: LXFL 529 NSCLC
NCI-H23 lung = test system: NCI-H23 lung
LOX IMVI melanoma = test system: LOX IMVI melanoma
XF 498 CNS = test system: XF 498 CNS
IGROV1 ovarian = test system: IGROV1 ovarian
OVCAR-8 ovarian = test system: OVCAR-8 ovarian
CCRF-CEM leukemia = test system: CCRF-CEM leukemia
SW-620 colon = test system: SW-620 colon
SK-OV-3 ovarian = test system: SK-OV-3 ovarian
OVCAR-3 ovarian = test system: OVCAR-3 ovarian
RXF 393 renal = test system: RXF 393 renal
MALME-3M melanoma = test system: MALME-3M melanoma
UACC-257 melanoma = test system: UACC-257 melanoma
DMS 114 small cell lung = test system: DMS 114 small cell lung
A498 renal = test system: A498 renal

With `CC1=Nn2c(nnc2-c2ccccc2Cl)NC(C)(C)C1` the TGI (TK-10 renal) was > 100 µM, the TGI (U251 CNS) was > 100 µM and the TGI (SNB-19 CNS) was > 100 µM. For the same molecule, the TGI (ACHN renal) was > 100 µM, the TGI (HOP-92 NSCLC) was > 100 µM and the TGI (NCI-H522 lung) was > 100 µM. The TGI (A549 NSCLC) was > 100 µM, the TGI (SK-MEL-28 melanoma) was > 100 µM and the TGI (HL-60(TB) leukemia) was > 100 µM. For the same molecule, the TGI (COLO 205 colon) was > 100 µM, the TGI (DLD-1 colon) was > 100 µM and the TGI (SF-539 CNS) was > 100 µM. For the same molecule, the TGI (K-562 leukemia) was > 100 µM, the TGI (SK-MEL-2 melanoma) was > 100 µM and the TGI (HT29 colon) was > 100 µM. For the same molecule, the TGI (SF-268 CNS) was > 100 µM, the TGI (OVCAR-4 ovarian) was > 100 µM and the TGI (M14 melanoma) was > 100 µM. The TGI (NCI-H226 lung) was > 100 µM, the TGI (UACC-62 melanoma) was > 100 µM and the TGI (CAKI-1 renal) was > 100 µM. The TGI (RPMI-8226 leukemia) was 54.3 µM, the TGI (KM12 colon) was > 100 µM and the TGI (EKVX NSCLC) was > 100 µM. For the same molecule, the TGI (HCC-2998 colon) was > 100 µM, the TGI (OVCAR-5 ovarian) was > 100 µM and the TGI (SN12C renal) was > 100 µM. The TGI (HCT-116 colon) was > 100 µM, the TGI (M19-MEL melanoma) was > 100 µM and the TGI (786-0 renal) was > 100 µM. The TGI (SR leukemia) was 74.4 µM, the TGI (KM20L2 colon) was > 100 µM and the TGI (DMS 273 small cell lung) was > 100 µM. For the same molecule, the TGI (SNB-75 CNS) was > 100 µM, the TGI (SNB-78 CNS) was > 100 µM and the TGI (HCT-15 colon) was > 100 µM. For the same molecule, the TGI (MOLT-4 leukemia) was > 100 µM, the TGI (UO-31 renal) was > 100 µM and the TGI (SF-295 CNS) was > 100 µM. For the same molecule, the TGI (SK-MEL-5 melanoma) was > 100 µM, the TGI (NCI-H460 lung) was > 100 µM and the TGI (HOP-62 NSCLC) was > 100 µM. The TGI (LXFL 529 NSCLC) was > 100 µM, the TGI (NCI-H23 lung) was > 100 µM and the TGI (LOX IMVI melanoma) was > 100 µM. The TGI (XF 498 CNS) was > 100 µM, the TGI (IGROV1 ovarian) was > 100 µM and the TGI (OVCAR-8 ovarian) was > 100 µM. For the same molecule, the TGI (CCRF-CEM leukemia) was > 100 µM, the TGI (SW-620 colon) was 35.8 µM and the TGI (SK-OV-3 ovarian) was > 100 µM.

In the case of `Cn1cccc(C(=O)c2ccccc2)c1=O`, the TGI (TK-10 renal) is reported as > 100 µM, the TGI (U251 CNS) is reported as > 100 µM and the TGI (SNB-19 CNS) is reported as > 100 µM. For the same molecule, the TGI (ACHN renal) was > 100 µM, the TGI (HOP-92 NSCLC) was > 100 µM and the TGI (NCI-H522 lung) was > 100 µM. For the same molecule, the TGI (A549 NSCLC) was > 100 µM, the TGI (SK-MEL-28 melanoma) was > 100 µM and the TGI (HL-60(TB) leukemia) was > 100 µM. For the same molecule, the TGI (COLO 205 colon) was > 100 µM, the TGI (DLD-1 colon) was > 100 µM and the TGI (SF-539 CNS) was > 100 µM. For the same molecule, the TGI (K-562 leukemia) was > 100 µM, the TGI (SK-MEL-2 melanoma) was > 100 µM and the TGI (HT29 colon) was > 100 µM. For the same molecule, the TGI (SF-268 CNS) was > 100 µM, the TGI (OVCAR-3 ovarian) was > 100 µM and the TGI (OVCAR-4 ovarian) was > 100 µM. For the same molecule, the TGI (M14 melanoma) was > 100 µM, the TGI (NCI-H226 lung) was > 100 µM and the TGI (UACC-62 melanoma) was > 100 µM. The TGI (CAKI-1 renal) was > 100 µM, the TGI (RPMI-8226 leukemia) was > 100 µM and the TGI (KM12 colon) was > 100 µM. The TGI (EKVX NSCLC) was > 100 µM, the TGI (HCC-2998 colon) was > 100 µM and the TGI (OVCAR-5 ovarian) was > 100 µM. The TGI (SN12C renal) was > 100 µM, the TGI (HCT-116 colon) was > 100 µM and the TGI (M19-MEL melanoma) was > 100 µM. For the same molecule, the TGI (RXF 393 renal) was > 100 µM, the TGI (786-0 renal) was > 100 µM and the TGI (SR leukemia) was > 100 µM. The TGI (KM20L2 colon) was > 100 µM, the TGI (DMS 273 small cell lung) was > 100 µM and the TGI (SNB-75 CNS) was > 100 µM. For the same molecule, the TGI (SNB-78 CNS) was > 100 µM, the TGI (HCT-15 colon) was > 100 µM and the TGI (MOLT-4 leukemia) was > 100 µM. The TGI (UO-31 renal) was > 100 µM, the TGI (SF-295 CNS) was > 100 µM and the TGI (SK-MEL-5 melanoma) was > 100 µM. For the same molecule, the TGI (NCI-H460 lung) was > 100 µM, the TGI (HOP-62 NSCLC) was > 100 µM and the TGI (LXFL 529 NSCLC) was > 100 µM. For the same molecule, the TGI (NCI-H23 lung) was > 100 µM, the TGI (LOX IMVI melanoma) was > 100 µM and the TGI (XF 498 CNS) was > 100 µM. The TGI (IGROV1 ovarian) was > 100 µM, the TGI (OVCAR-8 ovarian) was > 100 µM and the TGI (CCRF-CEM leukemia) was > 100 µM. For the same molecule, the TGI (SW-620 colon) was > 100 µM, the TGI (SK-OV-3 ovarian) was > 100 µM and the TGI (MALME-3M melanoma) was > 100 µM. For the same molecule, the TGI (UACC-257 melanoma) was > 100 µM and the TGI (DMS 114 small cell lung) was > 100 µM.

With `CSC1C=C(C(C)C)CCC1(C)SC` (configuration not stated) the TGI (TK-10 renal) was 41.4 µM, the TGI (U251 CNS) was 33.7 µM and the TGI (SNB-19 CNS) was 36.9 µM. It also gave a TGI (ACHN renal) of 32.6 µM, a TGI (HOP-92 NSCLC) of 31.2 µM and a TGI (NCI-H522 lung) of 31.6 µM. For the same molecule, the TGI (A549 NSCLC) was 78.4 µM, the TGI (SK-MEL-28 melanoma) was 34.2 µM and the TGI (HL-60(TB) leukemia) was 27.8 µM. The TGI (COLO 205 colon) was 29.7 µM, the TGI (DLD-1 colon) was 32.4 µM and the TGI (SF-539 CNS) was 33.6 µM. It also gave a TGI (K-562 leukemia) of 40.9 µM, a TGI (SK-MEL-2 melanoma) of 32.8 µM and a TGI (HT29 colon) of 29.6 µM. It also gave a TGI (SF-268 CNS) of 35.1 µM, a TGI (OVCAR-3 ovarian) of 25.2 µM and a TGI (OVCAR-4 ovarian) of 33.9 µM. The TGI (M14 melanoma) was 32 µM, the TGI (NCI-H226 lung) was 31.6 µM and the TGI (UACC-62 melanoma) was 47.6 µM. For the same molecule, the TGI (CAKI-1 renal) was 32.4 µM, the TGI (RPMI-8226 leukemia) was 59.4 µM and the TGI (KM12 colon) was 27.7 µM. The TGI (EKVX NSCLC) was 44.7 µM, the TGI (HCC-2998 colon) was 30.9 µM and the TGI (OVCAR-5 ovarian) was 30.5 µM. The TGI (SN12C renal) was 30.6 µM, the TGI (HCT-116 colon) was 37.1 µM and the TGI (M19-MEL melanoma) was 31.3 µM. It also gave a TGI (RXF 393 renal) of 29 µM, a TGI (786-0 renal) of 31.7 µM and a TGI (KM20L2 colon) of 56.8 µM. It also gave a TGI (DMS 273 small cell lung) of 33 µM, a TGI (SNB-75 CNS) of 31.7 µM and a TGI (SNB-78 CNS) of 32.3 µM. For the same molecule, the TGI (HCT-15 colon) was 39.9 µM, the TGI (MOLT-4 leukemia) was 40 µM and the TGI (A498 renal) was 40.4 µM. For the same molecule, the TGI (UO-31 renal) was 27.4 µM, the TGI (SK-MEL-5 melanoma) was 31.3 µM and the TGI (NCI-H460 lung) was 30.9 µM. The TGI (HOP-62 NSCLC) was 35.5 µM, the TGI (LXFL 529 NSCLC) was 32.9 µM and the TGI (NCI-H23 lung) was 35.7 µM. For the same molecule, the TGI (LOX IMVI melanoma) was 32.5 µM, the TGI (XF 498 CNS) was 33.8 µM and the TGI (IGROV1 ovarian) was 35.5 µM. The TGI (OVCAR-8 ovarian) was 35.5 µM, the TGI (CCRF-CEM leukemia) was 57 µM and the TGI (SW-620 colon) was 38 µM. For the same molecule, the TGI (SK-OV-3 ovarian) was 39.3 µM, the TGI (MALME-3M melanoma) was 26.1 µM and the TGI (UACC-257 melanoma) was 29.4 µM. The TGI (DMS 114 small cell lung) was 30.6 µM.
